Measurements from patent US12410171B2, “Tropomyosin receptor kinase (TRK) degradation compounds and methods of use” (Cullgen (Shanghai), Inc., priority 2020, dated 2025).

molecular target: T1, TPM3-TRKA fusion protein (Homo sapiens, UniProt P04629); experiment: TPM3-TRKA fusion protein levels in KM12 cells (Western blot); format: cell-based; conditions: 16 h; TPM3-TRKA degradation in KM12 cells at 10 nM compound, category of percentage degradation; read-out: Degradation (at 10 nM)
T1 construct: The resulted chimeric proteins always retain the kinase domain of TRK proteins; TPM3 (fusion partner, N-terminal part of tropomyosin alpha-3, P06753); endogenous in cells; host or cells: KM12 colon cancer cells; the other entry of the earlier key: TPM3 (P06753, Tropomyosin alpha-3 chain)
Procedure: KM12 cells were treated with DMSO or indicated compounds at 100 nM for 16 hours.
KM12 cells were treated with DMSO or indicated compounds at 0. 1 nM, 1 nM or 10 nM for 16 hours.
KM12 cells were treated with DMSO or indicated compounds at various concentrations for 16 hours.
KM12 cells were treated with DMSO or indicated compounds at various concentrations for 4 hours.
KM12 cells (a cancer model comprising a colon cancer cell line) were treated with DMSO or indicated compounds at various concentrations for 4 hours.
KM12 cells were treated with heterobifunctional compounds or their corresponding control compounds at 10 nM or 100 nM for 16 hours.
KM12 cells were treated with heterobifunctional compounds or their corresponding control compounds at 0.4-30 nM for 8-16 hours. […] Cells were authenticated using the short tandem repeat (STR) assays. […] Stable cell lines were established by lentivirus transduction, selected and maintained in medium containing 1 μg/mL puromycin (Beyotime Biotechnology).
Cultured cells were washed with cold PBS once and lysed in cold RIPA buffer supplemented with protease inhibitors and phosphatase inhibitors (Beyotime Biotechnology). The solutions were then incubated at 4° C. for 30 minutes with gentle agitation to fully lyse cells. For tumor tissues, tumors were cut into small pieces, milled with cold RIPA buffer using a mechanical homogenizer and lysed for 1 hour at 4° C. Cell lysates were centrifuged at 13,000 rpm for 10 minutes at 4° C. and pellets were discarded. Total protein concentrations in the lysates were determined by BCA assays (Beyotime Biotechnology). Cell lysates were mixed with Laemmli loading buffer to 1× and heated at 99° C. for 5 min. Proteins were resolved on SDS-PAGE and visualized by chemiluminescence. Images were taken by a ChemiDoc MP Imaging system (Bio-Rad). Protein bands were quantitated using the software provided by Bio-Rad.

T1 sequence (P04629 with tags, fused parts or gaps): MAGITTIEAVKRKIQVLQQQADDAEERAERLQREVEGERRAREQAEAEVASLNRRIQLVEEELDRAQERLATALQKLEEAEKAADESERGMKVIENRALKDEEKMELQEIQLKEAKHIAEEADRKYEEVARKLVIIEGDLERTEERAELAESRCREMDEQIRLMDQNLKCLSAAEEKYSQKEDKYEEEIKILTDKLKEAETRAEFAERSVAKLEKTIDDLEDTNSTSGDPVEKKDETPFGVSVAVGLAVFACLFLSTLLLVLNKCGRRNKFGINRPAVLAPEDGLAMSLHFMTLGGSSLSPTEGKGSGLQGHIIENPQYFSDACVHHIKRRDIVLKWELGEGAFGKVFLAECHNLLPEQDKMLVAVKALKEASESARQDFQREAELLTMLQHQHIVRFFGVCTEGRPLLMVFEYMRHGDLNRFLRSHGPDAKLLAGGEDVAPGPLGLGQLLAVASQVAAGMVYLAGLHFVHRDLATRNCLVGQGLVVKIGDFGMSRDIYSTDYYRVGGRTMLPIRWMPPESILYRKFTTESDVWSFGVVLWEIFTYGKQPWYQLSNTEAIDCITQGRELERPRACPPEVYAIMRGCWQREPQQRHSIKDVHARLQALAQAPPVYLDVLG

percent degradation of TPM3-TRKA protein at 0.01 µM [%] | Compound
< 50 | Cc1ncsc1-c1ccc(CNC(=O)[C@@H]2C[C@@H](O)CN2C(=O)[C@@H](NC(=O)CCOCCOCCOCCOCCC(=O)N2CCN(c3ccc(C(=O)Nc4n[nH]c5ccc(Cc6cc(F)cc(F)c6)cc45)c(NC4CCOCC4)c3)CC2)C(C)(C)C)cc1 [CPD-041, (2S,4R)-1-((S)-2-(tert-butyl)-19-(4-(4-((5-(3,5-Difluorobenzyl)-1H-indazol-3-yl)carbamoyl)-3-((tetrahydro-2H-pyran-4-yl)amino)phenyl)piperazin-1-yl)-4,19-dioxo-7,10,13,16-tetraoxa-3-azanonadecanoyl)-4-hydroxy-N-(4-(4-methylthiazol-5-yl)benzyl)pyrrolidine-2-carboxamide]
50 to 80 | Cc1ncsc1-c1ccc(CNC(=O)[C@@H]2C[C@@H](O)CN2C(=O)[C@@H](NC(=O)CCCCC(=O)N2CCN(c3ccc(C(=O)Nc4n[nH]c5ccc(Cc6cc(F)cc(F)c6)cc45)c(NC4CCOCC4)c3)CC2)C(C)(C)C)cc1 [CPD-044]
50 to 80 | Cc1ncsc1-c1ccc(CNC(=O)[C@@H]2C[C@@H](O)CN2C(=O)[C@@H](NC(=O)COCC(=O)N2CCN(c3ccc(C(=O)Nc4n[nH]c5ccc(Cc6cc(F)cc(F)c6)cc45)c(NC4CCOCC4)c3)CC2)C(C)(C)C)cc1 [CPD-045, (28,4R)-1-((S)-2-(2-(2-(4-(4-((5-(3,5˜Difluorobenzyl)-1H-indazol-3-yl)carbamoyl)-3-((tetrahydro-2H-pyran-4-yl)amino)phenyl)piperazin-1-yl)-2-oxoethoxy)acetamido)-3,3-dimethylbutanoyl)-4-hydroxy-N-(4-(4-methylthiazol-5-yl)benzyl)pyrrolidine-2-carboxamide]
50 to 80 | Cc1ncsc1-c1ccc(CNC(=O)[C@@H]2C[C@@H](O)CN2C(=O)[C@@H](NC(=O)CCC(=O)N2CCN(c3ccc(C(=O)Nc4n[nH]c5ccc(Cc6cc(F)cc(F)c6)cc45)c(NC4CCOCC4)c3)CC2)C(C)(C)C)cc1 [CPD-046, (25,4R)-1-((S)-2-(4-(4-(4-((S-(3,5-Difluorobenzyl)-1H-indazol-3-yl)carbamoyl)-3,3-((tetrahydro-2H-pyran-4-yl)amino)phenyl)piperazin-1-yl)-4-oxobutanamido)-3,3-dimethylbutanoyl)-4-hydroxy-N-(4-(4-methylthiazol-S-yl)benzyl)pyrrolidine-2-carboxamide]
> 80 | Cc1ncsc1-c1ccc(CNC(=O)[C@@H]2C[C@@H](O)CN2C(=O)[C@@H](NC(=O)CCCCCC(=O)N2CCN(c3ccc(C(=O)Nc4n[nH]c5ccc(Cc6cc(F)cc(F)c6)cc45)c(NC4CCOCC4)c3)CC2)C(C)(C)C)cc1 [CPD-047, (28,4R)-1-((S)-2-(7-(4-(4-((5-(3,5-Difluorobenzyl)-1H-indazol-3-yl)carbamoyl)-3-((tetrahydro-2H-pyran-4-yl)amino)phenyl)piperazin-1-yl)-7-oxoheptanamido)-3,3-dimethylbutanoyl)-4-hydroxy-N-(4-(4-methylthiazol-5-yl)benzyl)pyrrolidine-2-carboxamide]
< 50 | Cc1ncsc1-c1ccc(CNC(=O)[C@@H]2C[C@@H](O)CN2C(=O)[C@@H](NC(=O)CCOCCC(=O)N2CCN(c3ccc(C(=O)Nc4n[nH]c5ccc(Cc6cc(F)cc(F)c6)cc45)c(NC4CCOCC4)c3)CC2)C(C)(C)C)cc1 [CPD-048, (28,4R)-1-((S)-2-(3-(3-(4-(4-((5-(3,5-Difluorobenzyl)-1H-indazol-3-yl)carbamoyl)-3-((tetrahydro-2H-pyran-4-yl)amino)phenyl)piperazin-1-yl)-3-oxopropoxy)propanamido)-3,3-dimethylbutanoyl)-4-hydroxy-N-(4-(4-methylthiazol-5-yl)benzyl)pyrrolidine-2-carboxamide]
> 80 | O=C1CCC(N2C(=O)c3cccc(NCCCCCCC(=O)N4CCN(c5ccc(C(=O)Nc6n[nH]c7ccc(Cc8cc(F)cc(F)c8)cc67)c(NC6CCOCC6)c5)CC4)c3C2=O)C(=O)N1 (stereo not drawn) [CPD-049, N—(S-(3,5-Difluorobenzyl)-1H-indazol-3-yl)-4-(4-(7-((2-(2,6-dioxopiperidin-3-yl)-1,3-dioxoisoindolin-4-yl)amino)heptanoyl)piperazin-1-yl)-2-((tetrahydro-2H-pyran-4-yl)amino)benzamide]
> 80 | O=C1CCC(N2C(=O)c3cccc(NCCCCC(=O)N4CCN(c5ccc(C(=O)Nc6n[nH]c7ccc(Cc8cc(F)cc(F)c8)cc67)c(NC6CCOCC6)c5)CC4)c3C2=O)C(=O)N1 (stereo not drawn) [CPD-050, N-(5-(3,5-Difluorobenzyl)-1H-indazol-3-yl)-4-(4-(5-((2-(2,6-dioxopiperidin-3-yl)-1,3-dioxoisoindolin-4-yl)amino)pentanoyl)piperazin-1-yl)-2-((tetrahydro-2H-pyran-4-yl)amino)benzamide]
> 80 | O=C1CCC(N2C(=O)c3cccc(NCCC(=O)N4CCN(c5ccc(C(=O)Nc6n[nH]c7ccc(Cc8cc(F)cc(F)c8)cc67)c(NC6CCOCC6)c5)CC4)c3C2=O)C(=O)N1 (stereo not drawn) [CPD-051, N-(5-(3,5-Difluorobenzyl)-1H-indazol-3-yl)-4-(4-(3-((2-(2,6-dioxopiperidin-3-yl)-1,3-dioxoisoindolin-4-yl)amino)propanoyl)piperazin-1-yl)-2-((tetrahydro-2H-pyran-4-yl)amino)benzamide]
> 80 | O=C1CCC(N2C(=O)c3cccc(NCCCCCCCC(=O)N4CCN(c5ccc(C(=O)Nc6n[nH]c7ccc(Cc8cc(F)cc(F)c8)cc67)c(NC6CCOCC6)c5)CC4)c3C2=O)C(=O)N1 (stereo not drawn) [CPD-052, N-(5-(3,5-Difluorobenzyl)-1H-indazol-3-yl)-4-(4-(8-((2-(2,6-dioxopiperidin-3-yl)-1,3-dioxoisoindolin-4-yl)amino)octanoyl)piperazin-1-yl)-2-((tetrahydro-2H-pyran-4-yl)amino)benzamide]
> 80 | O=C1CCC(N2C(=O)c3cccc(NCCOCCOCCOCCOCCOCCC(=O)N4CCN(c5ccc(C(=O)Nc6n[nH]c7ccc(Cc8cc(F)cc(F)c8)cc67)c(NC6CCOCC6)c5)CC4)c3C2=O)C(=O)N1 (stereo not drawn) [CPD-054, N-(5-(3,5-Difluorobenzyl)-1H-indazol-3-yl)-4-(4-(1-((2-(2,6-dioxopiperidin-3-yl)-1,3-dioxoisoindolin-4-yl)amino)-3,6,9,12, 15-pentaoxaoctadecan-18-oyl)piperazin-1-yl)-2-((tetrahydro-2H-pyran-4-yl)amino)benzamide]
> 80 | O=C1CCC(N2C(=O)c3cccc(NCC(=O)N4CCN(c5ccc(C(=O)Nc6n[nH]c7ccc(Cc8cc(F)cc(F)c8)cc67)c(NC6CCOCC6)c5)CC4)c3C2=O)C(=O)N1 (stereo not drawn) [CPD-055, N-(5-(3,5-Difluorobenzyl)-1HI-indazol-3-yl)-4-(4-((2-(2,6-dioxopiperidin-3-yl)-1,3-dioxoisoindolin-4-yl)glycyl)piperazin-1-yl)-2-((tetrahydro-2H-pyran-4-yl)amino)benzamide]
> 80 | O=C1CCC(N2C(=O)c3cccc(NCCCCCC(=O)N4CCN(c5ccc(C(=O)Nc6n[nH]c7ccc(Cc8cc(F)cc(F)c8)cc67)c(NC6CCOCC6)c5)CC4)c3C2=O)C(=O)N1 (stereo not drawn) [CPD-056, N-(5-(3,5-Difluorobenzyl)-1H-indazol-3-yl)-4-(4-(6-((2-(2,6-dioxopiperidin-3-yl)-1,3-dioxoisoindolin-4-yl)amino)hexanoyl)piperazin-1-yl)-2-((tetrahydro-2H-pyran-4-yl)amino)benzamide]
< 50 | Cc1ncsc1-c1ccc(CNC(=O)[C@@H]2C[C@@H](O)CN2C(=O)[C@@H](NC(=O)COCCOCCOCC(=O)N2CCN(c3ccc(C(=O)Nc4n[nH]c5ccc(Cc6cc(F)cc(F)c6)cc45)c(NC4CCOCC4)c3)CC2)C(C)(C)C)cc1 [CPD-058, (25,4R)-1-((S)-2-(tert-butyl)-14-(4-(4-((5-(3,5-Difluorobenzyl)-1H-indazol-3-yl)carbamoyl)-3-((tetrahydro-2H-pyran-4-yl)amino)phenyl)piperazin-1-yl)-4,14-dioxo-6,9,12-trioxa-3-azatetradecanoyl)-4-hydroxy-N-(4-(4-methylthiazol-5-yl)benzyl)pyrrolidine-2-carboxamide]
> 80 | O=C(CN1CCN(c2cccc(-c3cnc4ccc(N5CCC[C@@H]5c5cccc(F)c5)nn34)n2)CC1)NCCOCCOCCOCCNc1cccc2c1C(=O)N(C1CCC(=O)NC1=O)C2=O (stereo partly drawn) [CPD-059, N-(2-(2-(2-(2-((2-(2,6-Dioxopiperidin-3-yl)-1,3-dioxoisoindolin-4-yl)amino)ethoxy)ethoxy)ethoxy)ethyl)-2-(4-(6-(6-((R)-2-(3-fluorophenyl)pyrrolidin-1-yl)imidazo[1,2-b]pyridazin-3-yl)pyridin-2-yl)piperazin-1-yl)acetamide]
